According to ChEMBL document CHEMBL5360591, “Licochalcone A Derivatives as Selective Dipeptidyl Peptidase 4 Inhibitors with Anti-Inflammatory Effects” (J Nat Prod, 2023):
Calls of active or inactive are those of the source. The calls are words filed in the database; no cut-off is given here.

Experiments:
Dipeptidyl peptidase 4 [1] = target: T1, Dipeptidyl peptidase 4 (Homo sapiens, UniProt P27487); experiment: Inhibition of DPP4 in human plasma using GP-BAN as fluorescent substrate preincubated for 5 mins followed by substrate addition and measured for 20 mins by microplate reader analysis; format: cell-free
Target sequence in this assay (P27487 whole entry): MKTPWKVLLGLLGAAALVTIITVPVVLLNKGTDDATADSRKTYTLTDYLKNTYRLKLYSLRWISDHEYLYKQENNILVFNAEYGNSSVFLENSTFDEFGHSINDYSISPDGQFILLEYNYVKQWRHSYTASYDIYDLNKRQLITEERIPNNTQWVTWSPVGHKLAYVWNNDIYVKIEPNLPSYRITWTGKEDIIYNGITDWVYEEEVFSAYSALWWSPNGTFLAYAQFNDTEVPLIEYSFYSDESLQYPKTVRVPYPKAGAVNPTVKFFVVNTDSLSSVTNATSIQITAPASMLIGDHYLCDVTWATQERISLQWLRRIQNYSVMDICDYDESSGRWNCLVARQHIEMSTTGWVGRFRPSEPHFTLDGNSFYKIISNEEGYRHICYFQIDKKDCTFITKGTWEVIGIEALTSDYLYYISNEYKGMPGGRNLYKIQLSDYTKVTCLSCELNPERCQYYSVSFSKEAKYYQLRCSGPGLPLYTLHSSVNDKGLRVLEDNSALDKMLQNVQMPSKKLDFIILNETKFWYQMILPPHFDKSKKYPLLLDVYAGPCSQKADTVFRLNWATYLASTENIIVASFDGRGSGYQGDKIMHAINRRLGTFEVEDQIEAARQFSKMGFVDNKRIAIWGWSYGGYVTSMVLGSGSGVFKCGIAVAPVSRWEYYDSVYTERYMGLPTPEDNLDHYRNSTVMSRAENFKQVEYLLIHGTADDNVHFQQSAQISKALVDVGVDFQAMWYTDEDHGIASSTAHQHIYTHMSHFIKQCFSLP

[2] = Metabolic stability in human liver microsomes assessed as UDPGA-dependent drug metabolism by measuring half life at 10 uM preincubated for 3 mins followed by UDPGA addition measured for 90 mins by LC-UV analysis; format: ADME, Microsome; conditions: time 93 min
Dipeptidyl peptidase 4 [3] = target: T1, Dipeptidyl peptidase 4; experiment: Inhibition of DPP4 in human HepG2 cells using GP-BAN as substrate assessed reduction of reduction in substrate hydrolysis at 20 uM incubated for 30 mins by Hoechst 33342 staining based assay; format: cell-based
Target sequence in this assay (P27487 whole entry, looked up): as the sequence (P27487 whole entry) above

RAW264.7 [4] = experiment: Anti-inflammatory activity in mouse RAW264.7 cells assessed as downregulation of LPS-stimulated IL-1beta mRNA expression at 20 to 100 uM preincubated for 4 hrs followed by LPS-stimulation for 24 hrs by qPCR analysis; format: functional, cell-based; conditions: dose 20-100 µM, time 28.0 hrs
Dipeptidyl peptidase 4 [5] = target: T1, Dipeptidyl peptidase 4; experiment: Mixed type inhibition of DPP4 (unknown origin) using varying concentrations of GP-BAN as substrate assessed as inhibition constant
Target sequence in this assay (P27487 whole entry): as above

RAW264.7 [6] = experiment: Anti-inflammatory activity in mouse RAW264.7 cells assessed as downregulation of LPS-stimulated TNF-alpha mRNA expression at 20 to 100 uM preincubated for 4 hrs followed by LPS-stimulation for 24 hrs by qPCR analysis; format: functional, cell-based; conditions: dose 20-100 µM, time 28.0 hrs
RPTEC = experiment: Cytotoxicity against human RPTEC cells assessed as cell growth inhibition incubated for 48 hrs by CCK-8 assay; format: toxicity, cell-based
Dipeptidyl peptidase 4 [7] = target: T1, Dipeptidyl peptidase 4; experiment: Inhibition of DPP4 in human Caco-2 cells using GP-BAN as substrate assessed reduction of reduction in substrate hydrolysis at 20 uM incubated for 30 mins by Hoechst 33342 staining based assay; format: cell-based
Target sequence in this assay (P27487 whole entry, looked up): as the sequence (P27487 whole entry) above

RAW264.7 [8] = experiment: Anti-inflammatory activity in mouse RAW264.7 cells assessed as downregulation of LPS-stimulated IL-6 mRNA expression at 20 to 100 uM preincubated for 4 hrs followed by LPS-stimulation for 24 hrs by qPCR analysis; format: functional, cell-based; conditions: dose 20-100 µM, time 28.0 hrs
RAW264.7 [9] = experiment: Cytotoxicity against mouse RAW264.7 cells assessed as cell growth inhibition incubated for 48 hrs by CCK-8 assay; format: toxicity, cell-based; conditions: raw264.7, 48 h
Prolyl endopeptidase FAP = target: T2, Prolyl endopeptidase FAP (Homo sapiens, UniProt Q12884); experiment: Inhibition of recombinant human FAP using Z-GP-AMC as substrate preincubated for 5 mins followed by substrate addition and measured after 20 mins by microplate reader analysis
T2 sequence (Q12884 whole entry): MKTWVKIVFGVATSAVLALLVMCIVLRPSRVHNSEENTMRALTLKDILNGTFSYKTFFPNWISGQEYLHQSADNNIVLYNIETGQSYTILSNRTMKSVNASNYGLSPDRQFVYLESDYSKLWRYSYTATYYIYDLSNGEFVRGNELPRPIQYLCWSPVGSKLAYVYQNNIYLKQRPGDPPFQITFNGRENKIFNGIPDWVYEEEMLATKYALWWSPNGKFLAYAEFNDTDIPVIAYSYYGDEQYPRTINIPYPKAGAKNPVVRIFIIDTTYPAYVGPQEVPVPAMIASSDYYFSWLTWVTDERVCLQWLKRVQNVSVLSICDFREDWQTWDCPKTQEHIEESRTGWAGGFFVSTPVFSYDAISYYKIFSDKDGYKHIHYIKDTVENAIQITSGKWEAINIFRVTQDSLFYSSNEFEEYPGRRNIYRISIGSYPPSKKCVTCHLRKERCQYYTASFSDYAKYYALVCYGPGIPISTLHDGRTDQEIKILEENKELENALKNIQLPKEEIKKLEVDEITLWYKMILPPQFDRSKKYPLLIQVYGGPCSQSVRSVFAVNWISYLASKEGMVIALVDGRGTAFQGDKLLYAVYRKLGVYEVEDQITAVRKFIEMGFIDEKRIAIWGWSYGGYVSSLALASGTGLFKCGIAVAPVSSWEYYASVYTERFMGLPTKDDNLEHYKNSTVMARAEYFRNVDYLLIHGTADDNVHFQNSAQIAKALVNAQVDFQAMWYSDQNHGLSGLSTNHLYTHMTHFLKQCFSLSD

[10] = Stability of the compound in artificial gastric fluid at 10 uM incubated for 90 mins by LC-UV analysis; format: ADME; conditions: simulated gi fluid, 1.5 h
[11] = Stability of the compound in artificial intestinal fluid at 10 uM incubated for 90 mins by LC-UV analysis; format: ADME; conditions: simulated gi fluid, 1.5 h
Dipeptidyl peptidase 4 [12] = target: T1, Dipeptidyl peptidase 4; experiment: Inhibition of recombinant human DPP4 using GP-BAN as substrate preincubated for 5 mins followed by substrate addition and measured after 20 mins by microplate reader analysis
Target sequence in this assay (P27487 whole entry): as the sequence (P27487 whole entry) above

[13] = Metabolic stability in human liver microsomes assessed as […] drug metabolism by measuring half life at 10 uM preincubated for 3 mins followed by NADPH addition measured for 90 mins by LC-UV analysis; format: ADME, Microsome; conditions: time 93 min
Homo sapiens [14] = species: Homo sapiens; experiment: Selectivity index, ratio of IC50 for inhibition of recombinant human PREP to IC50 for inhibition of recombinant human DPP4
Homo sapiens [15] = species: Homo sapiens; experiment: Selectivity index, ratio of IC50 for inhibition of recombinant human DPP9 to IC50 for inhibition of recombinant human DPP4
Prolyl endopeptidase = target: T3, Prolyl endopeptidase (Homo sapiens, UniProt P48147); experiment: Inhibition of recombinant human PREP using Z-GP-AMC as substrate preincubated for 5 mins followed by substrate addition and measured after 20 mins by microplate reader analysis
T3 sequence (P48147 whole entry): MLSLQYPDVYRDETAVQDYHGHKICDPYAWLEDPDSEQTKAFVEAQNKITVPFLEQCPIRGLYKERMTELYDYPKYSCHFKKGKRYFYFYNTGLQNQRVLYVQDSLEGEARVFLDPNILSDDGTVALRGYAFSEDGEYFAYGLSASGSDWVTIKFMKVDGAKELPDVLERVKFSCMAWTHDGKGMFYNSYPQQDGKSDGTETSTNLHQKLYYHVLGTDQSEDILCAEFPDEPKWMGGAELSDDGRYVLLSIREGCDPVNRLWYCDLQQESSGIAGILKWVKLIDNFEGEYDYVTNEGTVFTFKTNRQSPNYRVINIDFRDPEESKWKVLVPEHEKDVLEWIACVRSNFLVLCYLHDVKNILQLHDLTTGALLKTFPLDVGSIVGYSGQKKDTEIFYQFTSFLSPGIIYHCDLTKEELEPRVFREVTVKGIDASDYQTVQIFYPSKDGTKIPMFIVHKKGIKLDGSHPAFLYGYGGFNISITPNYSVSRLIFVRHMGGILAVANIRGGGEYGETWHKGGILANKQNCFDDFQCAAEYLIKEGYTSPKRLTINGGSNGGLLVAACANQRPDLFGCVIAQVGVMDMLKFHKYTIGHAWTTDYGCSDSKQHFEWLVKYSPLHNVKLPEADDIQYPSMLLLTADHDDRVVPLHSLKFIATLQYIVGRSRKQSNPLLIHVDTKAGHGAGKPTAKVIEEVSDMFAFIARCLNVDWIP

Dipeptidyl peptidase 9 = Dipeptidyl peptidase 9 (Homo sapiens, UniProt Q86TI2); experiment: Inhibition of recombinant human DPP9 using Z-GP-AMC as substrate preincubated for 5 mins followed by substrate addition and measured after 20 mins by microplate reader analysis
Chain of Dipeptidyl peptidase 9 (Q86TI2 whole entry): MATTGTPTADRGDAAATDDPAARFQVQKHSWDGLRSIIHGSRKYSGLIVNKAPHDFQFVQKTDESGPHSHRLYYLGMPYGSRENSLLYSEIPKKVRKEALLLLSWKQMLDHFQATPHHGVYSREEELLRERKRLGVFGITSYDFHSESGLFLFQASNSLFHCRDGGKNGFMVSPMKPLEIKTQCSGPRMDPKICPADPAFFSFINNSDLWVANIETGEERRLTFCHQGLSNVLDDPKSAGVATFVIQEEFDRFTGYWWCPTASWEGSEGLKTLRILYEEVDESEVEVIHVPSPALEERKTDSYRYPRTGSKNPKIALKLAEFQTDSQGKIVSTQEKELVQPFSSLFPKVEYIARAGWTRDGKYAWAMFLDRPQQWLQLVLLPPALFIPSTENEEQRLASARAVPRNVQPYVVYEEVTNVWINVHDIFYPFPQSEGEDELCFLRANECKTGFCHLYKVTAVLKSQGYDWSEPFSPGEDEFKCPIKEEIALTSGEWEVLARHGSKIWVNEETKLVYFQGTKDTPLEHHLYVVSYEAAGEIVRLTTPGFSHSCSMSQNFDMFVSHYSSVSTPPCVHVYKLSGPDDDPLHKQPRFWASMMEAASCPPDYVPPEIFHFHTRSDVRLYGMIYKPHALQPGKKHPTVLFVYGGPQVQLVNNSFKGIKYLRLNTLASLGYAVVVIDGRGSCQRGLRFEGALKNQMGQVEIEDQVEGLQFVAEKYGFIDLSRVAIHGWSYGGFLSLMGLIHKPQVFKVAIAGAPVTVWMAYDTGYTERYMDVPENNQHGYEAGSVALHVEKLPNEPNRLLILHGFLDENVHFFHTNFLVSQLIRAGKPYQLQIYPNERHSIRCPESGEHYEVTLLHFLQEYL

Prothrombin = Prothrombin (Homo sapiens, UniProt P00734); experiment: Inhibition of recombinant thrombin in human plasma using […] as substrate preincubated for 3 mins followed by substrate addition and measured for 30 mins by microplate reader analysis; format: cell-free

In the case of `CCOc1ccc(C(=O)/C=C/c2cc(Cl)c(OC)cc2OC)cc1`, the IC50 (Dipeptidyl peptidase 4 [1]) is reported as > 100 µM.

Compound `COc1cc(OC)c(/C=C/C(=O)c2ccc(O)cc2)cc1Cl` has an IC50 (Dipeptidyl peptidase 4 [1]) of 49.2 µM.

Work on `COc1cc(O)c(Cl)cc1/C=C/C(=O)c1ccc(O)c(C)c1` yielded an IC50 (Dipeptidyl peptidase 4 [1]) of 15.1 µM.

Compound `COc1cc(O)c(Br)cc1/C=C/C(=O)c1ccc(O)cc1` has an IC50 (Dipeptidyl peptidase 4 [1]) of 16.4 µM.

With `COc1cc(O)c(Cl)cc1/C=C/C(=O)c1ccc(O)cc1` the half-life at 10 µM [2] was 7.1 min, the inhibition (Dipeptidyl peptidase 4 [3]) was “Active” and the Activity (RAW264.7 [4]) was “Active”. For the same compound, the Ki (Dipeptidyl peptidase 4 [5]) was 6.57 µM, the Activity (RAW264.7 [6]) was “Active” and the Activity (RPTEC) was “Non-Toxic”. For the same compound, the inhibition (Dipeptidyl peptidase 4 [7]) was “Active”, the Activity (RAW264.7 [8]) was “Active” and the Activity (RAW264.7 [9]) was “Non-Toxic”. For the same compound, the IC50 (Dipeptidyl peptidase 4 [1]) was 7.16 µM.

For `CCCOc1ccc(C(=O)/C=C/c2cc(Cl)c(O)cc2OC)cc1`, the IC50 (Dipeptidyl peptidase 4 [1]) was 11.4 µM.

Compound `COc1cc(O)c(Cl)cc1/C=C/C(=O)c1ccc(O)c(O)c1` has a Ki (Dipeptidyl peptidase 4 [5]) of 11.1 µM and an IC50 (Dipeptidyl peptidase 4 [1]) of 8.86 µM.

In the case of `COc1cc(O)c(Cl)cc1/C=C/C(=O)c1ccc(O)c([N+](=O)[O-])c1`, the half-life at 10 µM [2] is reported as 25.4 min, the IC50 (Prolyl endopeptidase FAP) is reported as > 100 µM and the Stability [10] is reported as “Stable”. The inhibition (Dipeptidyl peptidase 4 [3]) was “Active”, the Activity (RAW264.7 [4]) was “Active” and the Ki (Dipeptidyl peptidase 4 [5]) was 0.96 µM. For the same compound, the Activity (RAW264.7 [6]) was “Active”, the Stability [11] was “Stable” and the IC50 (Dipeptidyl peptidase 4 [12]) was 4.87 µM. For the same compound, the Activity (RPTEC) was “Non-Toxic”, the half-life at 10 µM [13] was 197 min and the Ratio IC50 (Homo sapiens [14]) was > 12.7. For the same compound, the inhibition (Dipeptidyl peptidase 4 [7]) was “Active”, the Activity (RAW264.7 [8]) was “Active” and the Ratio IC50 (Homo sapiens [15]) was > 12.7. The IC50 (Prolyl endopeptidase) was 62.1 µM, the IC50 (Dipeptidyl peptidase 9) was 86.3 µM and the IC50 (Prothrombin) was > 100 µM. The Activity (RAW264.7 [9]) was “Non-Toxic” and the IC50 (Dipeptidyl peptidase 4 [1]) was 4.27 µM.

For `COc1ccc(C(=O)/C=C/c2cc(Cl)c(OC)cc2OC)cc1`, the IC50 (Dipeptidyl peptidase 4 [1]) was > 100 µM.

`COc1ccc(C(=O)/C=C/c2cc(Br)c(O)cc2OC)cc1` gave an IC50 (Dipeptidyl peptidase 4 [1]) of 34 µM.

With `CCCCOc1ccc(C(=O)/C=C/c2cc(Cl)c(O)cc2OC)cc1` the IC50 (Dipeptidyl peptidase 4 [1]) was 42.9 µM.

Compound `COc1cc(O)c(Cl)cc1/C=C/C(=O)c1cccc(O)c1` has a Ki (Dipeptidyl peptidase 4 [5]) of 17.4 µM and an IC50 (Dipeptidyl peptidase 4 [1]) of 6.43 µM.

Work on `COc1cc(O)c(Cl)cc1/C=C/C(=O)c1ccc(C(F)(F)F)cc1` yielded an IC50 (Dipeptidyl peptidase 4 [1]) of 12.6 µM.

In the case of `C[C@@H]1C[C@H]2[C@@H]3CCC4=CC(=O)C=C[C@]4(C)[C@@]3(F)[C@@H](O)C[C@]2(C)[C@@]1(O)C(=O)CO`, the Activity (RAW264.7 [4]) is reported as “Active”, the Activity (RAW264.7 [6]) is reported as “Active” and the Activity (RAW264.7 [8]) is reported as “Active”.

`COc1ccc(C(=O)/C=C/c2cc(Cl)c(O)cc2OC)cc1O` showed a Ki (Dipeptidyl peptidase 4 [5]) of 23.1 µM and an IC50 (Dipeptidyl peptidase 4 [1]) of 9.09 µM.

With `COc1cc(O)c(Cl)cc1/C=C/C(=O)c1ccc(Br)cc1` the Ki (Dipeptidyl peptidase 4 [5]) was 3.18 µM and the IC50 (Dipeptidyl peptidase 4 [1]) was 9.87 µM.

`O=c1ccc2ccc(O)cc2o1` [UMBELLIFERONE] gave a half-life at 10 µM [2] of 17.1 min.

With `CCCOc1ccc(C(=O)/C=C/c2cc(Br)c(O)cc2OC)cc1` the IC50 (Dipeptidyl peptidase 4 [1]) was 26.5 µM.

In the case of `COc1cc(C(=O)/C=C/c2cc(Cl)c(O)cc2OC)ccc1O`, the IC50 (Dipeptidyl peptidase 4 [1]) is reported as 31.9 µM.

For `CCOc1ccc(C(=O)/C=C/c2cc(Cl)c(O)cc2OC)cc1`, the IC50 (Dipeptidyl peptidase 4 [1]) was 21.2 µM.

For `CCCCOc1ccc(C(=O)/C=C/c2cc(Br)c(O)cc2OC)cc1`, the IC50 (Dipeptidyl peptidase 4 [1]) was > 100 µM.

`CCOc1ccc(C(=O)/C=C/c2cc(Br)c(O)cc2OC)cc1` gave an IC50 (Dipeptidyl peptidase 4 [1]) of 35 µM.

Work on `O=c1c(O)c(-c2ccc(O)cc2)oc2cc(O)cc(O)c12` [KAEMPFEROL] yielded a Ki (Dipeptidyl peptidase 4 [5]) of 14.4 µM and an IC50 (Dipeptidyl peptidase 4 [1]) of 6.67 µM.

`COc1ccc(C(=O)/C=C/c2cc(Cl)c(O)cc2OC)cc1` gave an IC50 (Dipeptidyl peptidase 4 [1]) of 11 µM.

In the case of `N[C@@H](CC(=O)N1CCn2c(nnc2C(F)(F)F)C1)Cc1cc(F)c(F)cc1F`, the Activity (RAW264.7 [4]) is reported as “Active”, the Activity (RAW264.7 [6]) is reported as “Active” and the Activity (RAW264.7 [8]) is reported as “Active”.

`C=CC(C)(C)c1cc(/C=C/C(=O)c2ccc(O)cc2)c(OC)cc1O` [LICOAGROCHACONE A] gave an IC50 (Dipeptidyl peptidase 4 [1]) of 30.4 µM.

In the case of `CCCOc1ccc(C(=O)/C=C/c2cc(Cl)c(OC)cc2OC)cc1`, the IC50 (Dipeptidyl peptidase 4 [1]) is reported as > 100 µM.
